Test results: patent US20080207671A1, “Diagnosis and treatment of diseases arising from defects in the tuberous sclerosis pathway” (The Regents of the University of Michigan, priority 2006, published 2008)
Entries after “also recorded” stand apart in the source; their conditions may differ.

How the values were obtained:
[1] = tested on: eukaryotic elongation factor 2 (eEF2); details: Horman et al.; cited from earlier work
AMPK = details: Corton et al.; cited from earlier work
S6K and 4EBP1 = details: Kimura et al.; Krause et al.; cited from earlier work
[2] = tested on: phosphorylation of S6K, S6, 4EBP1 and mTOR; experiment: Immunoblot of S6K, S6, 4EBP1 and mTOR phosphorylation in HEK293 cells under energy depletion; format: cell-based, human; details: for phosphorylation of S6K and 4EBP1: depletion of cellular ATP
Method: (§1) HEK293 cells were seeded and maintained in Dulbecco's modified Eagle's medium (DMEM) containing 10% fetal bovine serum (FBS). Transfection was performed in serum-free conditions using Lipofectamine reagent (Invitrogen, Carlsbad, Calif.) in accordance with the manufacturer's instructions. In brief, 4 h after transfection, the cells were recovered in DMEM containing 10% FBS for 16 h and then starved for 16-24 h. Cells were then lysed in lysis buffer (10 mM Tris-HCl at pH 7.5, 100 mM sodium chloride, 1% NP-40, 1% Triton X-100, 50 mM sodium fluoride, 2 mM EDTA, 1 mM phenyl methylsulphonyl fluoride, 10 μg ml^−1 leupeptin and 10 μg ml^−1 aprotinine) and immunoprecipitated with the indicated antibodies and protein G-Sepharose beads. Immunocomplexes were analyzed by SDS-polyacrylamide gel electrophoresis (PAGE).

Akt phosphorylation = experiment: Immunoblot of Akt phosphorylation in HEK293 cells; format: cell-based, human; details: AMPK inhibitor treatment
Method: as §1

TSC2 = experiment: TSC2/TSC1 phosphorylation in transfected HEK293 cells (mobility shift, 32P labelling, two-dimensional phosphopeptide mapping); format: cell-based, human; details: 10 μM, added 30 minutes before 2-DG, HEK293
Method: as §1
HEK293 cells were cotransfected with HA-tagged TSC2, Myc-tagged TSC1 and the indicated plasmids. Cells were phosphate- and serum-starved for 4 h before incubation with 0.25 mCi ml^−1 32P-orthophosphate (ICN) for 4 h.
Cells were washed once with ice-cold PBS and lysed. HA-tagged TSC2 was immunoprecipitated, resolved by SDS-PAGE and transferred to a PVDF membrane. Phosphorylated TSC2 was visualized by autoradiography and phosphopeptide mapping was then performed. In brief, the phosphorylated TSC2 bands were excised, fixed in methanol and incubated in 500 μl of 0.5% polyvinylpyrrolidone-40 dissolved in 100 mM acetic acid for 30 min at 37° C. The sample were then digested with 20 μg of TPCK-treated trypsin (Sigma) at 37° C. in 75 mM ammonium bicarbonate buffer at pH 8.0 containing 5% acetonitrile. After digestion, samples were dried under vacuum and suspended in 10 μl of water. Samples were spotted onto a cellulose plate and first dimensional electrophoresis was performed using 1% ammonium bicarbonate buffer at pH 8.9. The plates were separated by chromatography in the second dimension in chromatography buffer (n-butanol:pyridine:acetic acid:water; 20:24:6:30). The plates were dried and phosphopeptides were visualized by autoradiography.

[3] = tested on: LEF (TSC2−/− epithelial) cells; experiment: Cell death / apoptosis of LEF cells (vector, TSC2, TSC2-3A); format: cell-based; details: vector and wild type TSC2 expressing LEF cells
Method: FIGS. 16a-16f show TSC2 plays roles in protecting cells from glucose depletion-induced apoptosis. […] LEF cells stably expressing vector, TSC2, or TSC2-3A were cultured in 25 mM glucose (G+) or glucose free medium (G−) with or without 20 nM rapamycin. Pictures were taken at 72 hours in culture. Note that the TSC2 wild type expressing cells are morphologically smaller. […] LEF cells stably expressing vector, TSC2 or TSC2-3A were cultured in glucose free medium with or without 20 nM rapamycin for 48 hours. Western blots with anti-cleaved-caspase-3 and actin are shown. […] EEF cells were cultured in glucose free medium with or without 20 nM rapamycin for 96 hours. […] The EEF4 and EEF8 cells were cultured in glucose free medium with or without 20 nM rapamycin for 72 hours. Western blots with cleaved-caspase-3 and actin are shown. […] The MEFs were cultured in glucose free medium for 48 hours. […] MEFs were cultured in glucose free medium with or without 20 nM rapamycin for 16 hours. Western blots with cleaved-caspase-3 and actin are shown.

EEF4 (TSC2+/+) cells = experiment: S6K and 4EBP1 phosphorylation in EEF4 (TSC2+/+) fibroblasts; format: cell-based
[4] = biological target: GST-TSC2 fragment 2 (amino acids 1357-1765) (UniProt P49816)
[5] = biological target: GST-TSC2 fragment 1 (amino acids 910-1112) (UniProt P49816)
TSC2-F2 fragment = TSC2-F2 fragment (UniProt P49816)
[6] = biological target: TSC2 fragment containing S1345 (UniProt P49816)

## NC(=O)c1ncn([C@@H]2O[C@H](COP(=O)(O)O)[C@@H](O)[C@H]2O)c1N [AICAR, 5-aminoimidazole-4-carboxyamide ribonucleotide]
[1]
  phosphorylation of eEF2: increase phosphorylation
AMPK
  AMPK activation: activate AMPK
S6K and 4EBP1
  S6K activity: inhibit S6K activity

## c1cc(-c2cnn3cc(-c4ccc(OCCN5CCCCC5)cc4)cnc23)ccn1 [Compound C]
[2]; HEK 293, with 2-DG, listed as AMPK inhibitor
  effect on 2-DG induced dephosphorylation of S6K: significantly reversed the inhibitory effect of 2-DG on S6K phosphorylation; also recorded: blocks the 2-DG induced dephosphorylation of S6K
[2]; glucose deprivation, listed as AMPK inhibitor
  S6K dephosphorylation induced by glucose deprivation: significantly blocked; also recorded: partially blocks
Akt phosphorylation
  Akt phosphorylation: had no effect
TSC2
  mobility of TSC2 / 2-DG induced mobility shift: blocks the 2-DG induced mobility shift of TSC2
TSC2; listed as compound C
  mobility of TSC2 / 2-DG induced mobility shift: increased the mobility of TSC2

## COc1cc([C@@H]2c3cc4c(cc3[C@@H](O[C@@H]3O[C@@H]5CO[C@@H](C)O[C@H]5[C@H](O)[C@H]3O)[C@H]3COC(=O)[C@H]23)OCO4)cc(OC)c1O [Etoposide]
[3]
  cell death: caused cell death in both vector and wild type TSC2 expressing cells

## N#CC(C#N)=NNc1ccc(OC(F)(F)F)cc1 [FCCP]
EEF4 (TSC2+/+) cells
  S6K phosphorylation: caused a decrease in S6K phosphorylation
[2]
  phosphorylation of S6K and 4EBP1: caused a dephosphorylation of S6K and 4EBP1

## CC(=O)c1c(O)c(C)c(O)c(Cc2c(O)c3c(c(C(=O)/C=C/c4ccccc4)c2O)OC(C)(C)C=C3)c1O [Rottlerin]
EEF4 (TSC2+/+) cells
  S6K phosphorylation: caused a decrease in S6K phosphorylation
[2]
  phosphorylation of S6K and 4EBP1: caused a dephosphorylation of S6K and 4EBP1

## OC[C@@H](O)[C@@H](O)[C@H](O)[C@H](O)CO [mannitol]
[2]; 25 mM
  phosphorylation of S6K on T389: had little effect
[2]; 100 mM
  phosphorylation of S6K: significantly inhibited

## GST-Akt
[4]
  in vitro phosphorylation by purified Akt: Wild-type Akt, but not the kinase-inactive Akt-KM mutant, efficiently phosphorylated both fragment 1 and fragment 2 of TSC2 in vitro
[5]
  in vitro phosphorylation by purified Akt: Wild-type Akt, but not the kinase-inactive Akt-KM mutant, efficiently phosphorylated both fragment 1 and fragment 2 of TSC2 in vitro

## immunoprecipitated AMPK (in vitro kinase assay)
TSC2-F2 fragment
  in vitro phosphorylation by immunoprecipitated AMPK: In vitro phosphorylation of the purified TSC2-F2 fragment by immunoprecipitated AMPK showed that AMPK specifically phosphorylates TSC2 on T1227
[6]
  in vitro phosphorylation by immunoprecipitated AMPK: The TSC2 fragment was phosphorylated by immunoprecipitated AMPK, but not the kinase inactive AMPK mutant
